Reference: PubChem BioAssay (NCI)
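96-well plates; 48 h exposure; 5 concentrations. Endpoints by linear interpolation between flanking doses. Not reached: highest tested concentration assigned. Here, GI50 denotes the concentration required for 50% inhibition of growth. Definition used: TGI = concentration required for complete inhibition of growth.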

Key:
Test in all cases: NCI tumour cell line growth inhibition, 48 h
[1] = tested on: SN12C renal
[2] = tested on: SNB-75 CNS
[3] = tested on: SK-MEL-5 melanoma
[4] = tested on: HT29 colon
[5] = tested on: BT-549 breast
[6] = tested on: TK-10 renal
[7] = tested on: UACC-62 melanoma
[8] = tested on: OVCAR-4 ovarian
[9] = tested on: NCI-H23 lung
[10] = tested on: SF-539 CNS
[11] = tested on: IGROV1 ovarian
[12] = tested on: NCI-H460 lung
[13] = tested on: SK-OV-3 ovarian
[14] = tested on: OVCAR-3 ovarian
[15] = tested on: HCC-2998 colon
[16] = tested on: MOLT-4 leukemia
[17] = tested on: UACC-257 melanoma
[18] = tested on: PC-3 prostate
[19] = tested on: KM12 colon
[20] = tested on: SF-268 CNS
[21] = tested on: MDA-MB-435
[22] = tested on: K-562 leukemia
[23] = tested on: HOP-92 NSCLC
[24] = tested on: UO-31 renal
[25] = tested on: T-47D breast
[26] = tested on: SK-MEL-28 melanoma
[27] = tested on: OVCAR-5 ovarian
[28] = tested on: A498 renal
[29] = tested on: HS 578T breast
[30] = tested on: RXF 393 renal
[31] = tested on: MDA-MB-231 breast
[32] = tested on: NCI-H522 lung
[33] = tested on: MCF7 breast
[34] = tested on: HCT-15 colon
[35] = tested on: A549 NSCLC
[36] = tested on: U251 CNS
[37] = tested on: SK-MEL-2 melanoma
[38] = tested on: NCI/ADR-RES ovarian
[39] = tested on: COLO 205 colon
[40] = tested on: SR leukemia
[41] = tested on: NCI-H226 lung
[42] = tested on: MALME-3M melanoma
[43] = tested on: LOX IMVI melanoma
[44] = tested on: CAKI-1 renal
[45] = tested on: OVCAR-8 ovarian
[46] = tested on: CCRF-CEM leukemia
[47] = tested on: RPMI-8226 leukemia
[48] = tested on: SW-620 colon
[49] = tested on: ACHN renal
[50] = tested on: HL-60(TB) leukemia
[51] = tested on: SNB-19 CNS
[52] = tested on: EKVX NSCLC
[53] = tested on: SF-295 CNS

## COc1cc(/C=C2\C(=O)Nc3ccc(O)cc32)cc(OC)c1OC
[1]
  GI50: 15.5 µM
  TGI: 72.2 µM
[2]
  GI50: 8.54 µM
  TGI: 33.7 µM
[3]
  GI50: 6.31 µM
  TGI: 25.1 µM
[4]
  GI50: 10.3 µM
  TGI: 25.3 µM
[5]
  GI50: 11 µM
  TGI: 29.4 µM
[6]
  GI50: 40 µM
  TGI: > 100 µM
[7]
  GI50: 11.7 µM
  TGI: 26.6 µM
[8]
  GI50: 11.1 µM
  TGI: 55.7 µM
[9]
  GI50: 6.76 µM
  TGI: 24.8 µM
[10]
  GI50: 5.86 µM
  TGI: 81.5 µM
[11]
  GI50: 12.1 µM
  TGI: 35.7 µM
[12]
  GI50: 8.69 µM
  TGI: 35.9 µM
[13]
  GI50: 27.8 µM
  TGI: 98.1 µM
[14]
  GI50: 6.44 µM
  TGI: 28.3 µM
[15]
  GI50: 7.46 µM
  TGI: 20.9 µM
[16]
  GI50: 1.24 µM
  TGI: 28.5 µM
[17]
  GI50: 8.48 µM
  TGI: 22.1 µM
[18]
  GI50: 2.4 µM
  TGI: 19.1 µM
[19]
  GI50: 17 µM
  TGI: > 100 µM
[20]
  GI50: 6.49 µM
  TGI: 26.8 µM
[21]
  GI50: 3.96 µM
  TGI: 17.1 µM
[22]
  GI50: 3.83 µM
  TGI: > 100 µM
[23]
  GI50: 7.92 µM
  TGI: 30.2 µM
[24]
  GI50: 12.1 µM
  TGI: 33.3 µM
[25]
  GI50: 7.55 µM
  TGI: > 100 µM
[26]
  GI50: 14.1 µM
  TGI: 30.2 µM
[27]
  GI50: 17.5 µM
  TGI: 33.5 µM
[28]
  GI50: 18.3 µM
  TGI: 40.6 µM
[29]
  GI50: 13.5 µM
  TGI: > 100 µM
[30]
  GI50: 2.19 µM
  TGI: 5.94 µM
[31]
  GI50: 8.06 µM
  TGI: 37 µM
[32]
  GI50: 4.24 µM
  TGI: 17.1 µM
[33]
  GI50: 8.59 µM
  TGI: > 100 µM
[34]
  GI50: 13.1 µM
  TGI: 41 µM
[35]
  GI50: 21 µM
  TGI: 88 µM
[36]
  GI50: 4.08 µM
  TGI: 16.8 µM
[37]
  GI50: 13.6 µM
  TGI: 34.7 µM
[38]
  GI50: 17.8 µM
  TGI: 59 µM
[39]
  GI50: 20 µM
  TGI: 59.6 µM
[40]
  GI50: 1.75 µM
  TGI: 9.5 µM
[41]
  GI50: 21.1 µM
  TGI: 54.4 µM
[42]
  GI50: 17.9 µM
  TGI: 44.4 µM
[43]
  GI50: 4.53 µM
  TGI: 16.6 µM
[44]
  GI50: 23.1 µM
  TGI: 83.1 µM
[45]
  GI50: 18.3 µM
  TGI: 65.6 µM
[46]
  GI50: 4.34 µM
  TGI: 34.4 µM
[47]
  GI50: 3.53 µM
  TGI: 21.3 µM
[48]
  GI50: 10.5 µM
  TGI: > 100 µM
[49]
  GI50: 15.9 µM
  TGI: 78.6 µM
[50]
  GI50: 6.11 µM
  TGI: 40.7 µM
[51]
  GI50: 11.9 µM
  TGI: 40.6 µM
[52]
  GI50: 18.6 µM
  TGI: 59 µM
[53]
  GI50: 26.4 µM
  TGI: > 100 µM
